Where a name gives a salt, the structure may show the parent alone.
Tests used:
MiaPaCa-2 cells = experiment: Proliferation assay, pancreatic cancer cell line MiaPaCa-2; assay type: cell-based; conditions: Homo sapiens, MIA PaCa-2; 72 h, CyQUANT; oncogenic mutant K-Ras
From the text: (§1) FIG. 5A-5E—Concentration-response curves of 42, 68, 70, 72 and 73 on proliferation of five pancreatic cancer cell lines. BxPC-3 expresses wild type K-Ras, whereas the others express oncogenic mutant K-Ras. […] EC50 values for their inhibitory effect are tabulated. ND means that the EC50 value could not be determined within the dose range tested. See also Table 5.
(§2) Cell lines: Madine Darby Canine Kidney epithelial cells (MDCK) stably co-expressing mGFP-tagged full length oncogenic mutant K-Ras (GFP-K-RasG12V) and mCherry-tagged to the amino acids 179-189 of H-RasC181S, C184S (mCherry-CAAX, localizes primarily to endomembranes) were grown in DMEM-high glucose/sodium pyruvate/10% FBS. The medium was supplemented with 1× Penicillin/Streptomycin for fluorescence microscopy assays, to avoid any microbial contamination from the test compounds added. KLE and Hec50 cells were maintained in DMEM-F-12 medium supplemented with 10% FBS. Hec-1A and Hec-1B cells were grown in McCoy's 5a medium supplemented with 10% FBS. ESS-1 cells were grown in RPMI 1640 medium supplemented with 20% FBS. MPanc96 cells were grown in DMEM supplemented with 10% FBS, MiaPaCa-2 cells in DMEM supplemented with 10% FBS and 2.5% horse serum and all other cell lines were grown in RPMI 1640 supplemented with 10% FBS. All cancer cell media were supplemented with 1× Penicillin/Streptomycin. All cell lines were grown at 37° C. with 5% CO2.
(§3) Proliferation Assay: Cells were seeded in 96-well plates. After 24 h, fresh growth medium supplemented with 0.1% vehicle (DMSO), or various concentrations of drugs was added and cells were grown for 72 h. Cell numbers were quantified using the CyQUANT® Cell Proliferation Assay Kit (Life Technologies), according to the manufacturer's protocol. Fluorescence measurement was used as a measure of live cell number.
(§4) Based upon the concentration-response curves of five different compounds (42, 68, 70, 72, and 73) were tested for their effects on cell proliferation of five different pancreatic cell lines. These experiments were carried out as described in the Methods and Materials section.

Hec-1B cells = experiment: Proliferation assay, endometrial cancer cell line Hec-1B; assay type: cell-based; conditions: Homo sapiens; 72 h, CyQUANT; Hec-1B expresses oncogenic mutant K-Ras; ND = EC50 could not be determined within the dose range tested
From the text: (§5) FIG. 4A-4E—Concentration-response curves of 42, 68, 70, 72 and 73 on proliferation of five endometrial cancer cell lines. KLE and ESS-1 express wild type K-Ras and Hec-1A, Hec-1B and Hec50 express oncogenic mutant K-Ras. […] EC50 values for their inhibitory effect are tabulated. ND means that the EC50 value could not be determined within the dose range tested. See also Table 4.
as §2, §3
Based upon the concentration-response curves of five different compounds (42, 68, 70, 72, and 73) were tested for their effects on cell proliferation of five different endometrial cell lines. […]

MOH cells = experiment: Proliferation assay, pancreatic cancer cell line MOH; assay type: cell-based; conditions: 72 h, CyQUANT, oncogenic mutant K-Ras
From the text: as §1, §2, §3, §4

HPAC cells = experiment: Proliferation assay, pancreatic cancer cell line HPAC; assay type: cell-based; conditions: Homo sapiens, 72 h, CyQUANT, oncogenic mutant K-Ras
From the text: as §1, §2, §3, §4

MPanc-96 cells = experiment: Proliferation assay, pancreatic cancer cell line MPanc-96; assay type: cell-based; conditions: MPANC96; 72 h, CyQUANT; oncogenic mutant K-Ras
From the text: as §1, §2, §3, §4

[1] = biological target: T1, GFP-tagged K-rasG12V (oncogenic K-ras) in MDCK cells (Homo sapiens, UniProt P01116, G12V); experiment: K-ras mislocalization, confocal fluorescence microscopy with densitometric analysis; assay type: cell-based, canine; conditions: 48 hours, MDCK cells stably expressing GFP-tagged K-rasG12V, normalized to vehicle-treated control; for inhibition at 4 µM: 4 μM compound, read-out: % Mislocalization of K-ras when treated with 4 μM compound
T1 construct: mGFP-tagged full length oncogenic mutant K-Ras (GFP-K-RasG12V); expressed in transfected cells
Method: FIGS. 1 & 2—Representative images showing degree of K-ras mislocalization with compound treatment (images corresponds with column 3 of Table 2). MDCK cells stably expressing GFP-tagged K-rasG12V were treated with vehicle or compound (4 μM) for 48 hours and fixed with 4% paraformaldehyde. The coverslips were mounted in Mowiol and imaged by confocal microscopy (Nikon A1) using a 60× objective. The number above each image corresponds the fendiline derivative code.
(§6) To determine the effect of compounds on localization of K-ras, Mardine Darby canine kidney epithelial (MDCK) cells stably expressing GFP-tagged K-rasG12V (oncogenic K-ras) grown on cover slips were treated with vehicle or compound (4 μM) for 48 hours and fixed with 4% paraformaldehyde. The coverslips were mounted in Mowiol and imaged by confocal microscopy (Nikon A1) using a 60× objective. Images were analyzed by ImageJ software. Densitometric analysis was performed on images to determine the degree of K-ras mislocalization. To determine the effect of compounds on K-ras function, MDCK cells stably expressing GFP-tagged K-rasG12V were treated with vehicle or compound (4 μM) for 48 hours. Following treatment, whole cell lysates were prepared and subjected SDS-PAGE and western blotting to quantify the level of phosphorylated ERK, a protein activated downstream of K-ras. All calculations were normalized to vehicle-treated control.
Fluorescence microscopy: 2×10^5 or 1×10^5 cells/well were seeded in 6- or 12-well cell culture plates, respectively, containing glass coverslips. 24 h after seeding, fresh medium containing 1% vehicle (Dimethyl sulfoxide, DMSO) or 4 μM test compound (1:100 dilution, such that DMSO was 1%) was added and incubated for 48 h, following which the cells were fixed with 4% paraformaldehyde and coverslips were mounted in Mowiol. Cells were imaged in the GFP wavelength (488 nm) using a confocal microscope (Nikon A1) with 60× objective. Images were saved in tagged imaged file format (tiff) and analyzed by ImageJ software. The densitometric ratio of plasma membrane localized K-Ras versus total K-Ras was calculated and normalized to vehicle-treated control.

Hec50 cells = experiment: Proliferation assay, endometrial cancer cell line Hec50; assay type: cell-based; conditions: 72 h, CyQUANT; Hec50 expresses oncogenic mutant K-Ras
From the text: as §5, §2, §3
(§7) Based upon the concentration-response curves of five different compounds (42, 68, 70, 72, and 73) were tested for their effects on cell proliferation of five different endometrial cell lines. These experiments were carried out as described in the Methods and Materials section.

[2] = system: phosphorylated ERK, a protein activated downstream of K-ras; experiment: Western immunoblotting for pERK (inhibition of ERK activation); assay type: cell-based, canine; conditions: Canis lupus familiaris; 4 μM compound, 48 hours, MDCK cells stably expressing GFP-tagged K-rasG12V; whole cell lysates; normalized to vehicle-treated control; read-out: % Inhibition of ERK activation when treated with 4 μM compound
Method: as §6
Western Immunoblotting for pERK: 2×10^5 cells/well were seeded in 6-well cell culture plates. 24 h after seeding, fresh medium containing 1% vehicle (DMSO) or 4 μM test compound (1:100 dilution, such that DMSO was 1%) was added and incubated for 48 h. Cells were lysed in Buffer B (50 mM Tris [pH 7.5], 75 mM NaCl, 25 mM NaF, 5 mM MgCl2, 5 mM EGTA, 1 mM dithiothreitol, 100 μM NaVO4, 1% Nonidet P-40 plus protease inhibitors). SDS-PAGE and immunoblotting with the anti-phospho-p44/42 mitogen-activated protein kinase (MAPK) (ERK1/2) antibody was performed using 20 μg of each whole cell lysate. Signal was detected by enhanced chemiluminescence (SuperSignal; Pierce, Thermo Fisher Scientific, Rockford, Ill.) and imaged by FluorChemQ (Alpha Inotech, San Leandro, Calif.). Quantification of intensities was performed using FluorChemQ software. Results were normalized to vehicle-treated control.

Hec-1A cells = experiment: Proliferation assay, endometrial cancer cell line Hec-1A; assay type: cell-based; conditions: Homo sapiens; 72 h, CyQUANT; Hec-1A expresses oncogenic mutant K-Ras
From the text: as §5, §2, §3, §7

chemotaxis = experiment: Inhibition of chemotaxis; conditions: preliminary data

| Structure (SMILES) | inhibition at 4 µM [1] [%] | inhibition at 4 µM [2] [%] | also measured |
| --- | --- | --- | --- |
| COC(=O)[C@H](NCC=C(c1ccccc1)c1ccccc1)c1ccccc1 [Compound 42, (R)-methyl 2-((3,3-diphenylallyl)amino)-2-phenylacetate] | 50 | 44 | EC50 (MiaPaCa-2 cells): 2410 nM; EC50 (Hec-1B cells): 524 nM; EC50 (MOH cells): 1040 nM; EC50 (HPAC cells): 944 nM; EC50 (MPanc-96 cells): 1120 nM; EC50 (Hec50 cells): 423 nM; EC50 (Hec-1A cells): 7.39 nM |
| CC(NCCC(c1ccccc1)c1ccccc1)c1ccccc1 (stereo not drawn) [Fendiline, 3,3-diphenyl-N-(1-phenylethyl)propan-1-amine] |  | 7.37 | % Mislocalization of K-ras when treated with 4 μM compound [1]: 20.53%; Inhibition of chemotaxis (chemotaxis): effective at inhibiting chemotaxis at picomolar and nanomolar concentrations |
| CCC(NCC=C(c1ccccc1)c1ccccc1)c1ccccc1 (stereo not drawn) [Compound 29, 3,3-diphenyl-N-(1-phenylpropyl)prop-2-en-1-amine hydrochloride] | 37 | 40.3 |  |
| COC(=O)[C@H](NC/C=C/c1ccccc1)c1ccccc1 [Compound 40, (R)-methyl 2-(cinnamylamino)-2-phenylacetate] | 9.46 | 11 |  |
| C[C@@H](NCC=C(c1ccccc1)c1ccccc1)c1ccc([N+](=O)[O-])cc1 [Compound 47] | 34 | 70.6 |  |
| C[C@H](NCC=C(c1ccccc1)c1ccccc1)c1ccccc1 [Compound 17, (S)-3,3-diphenyl-N-(1-phenylethyl)prop-2-en-1-amine] | 8.27 | -51.9 |  |
| C(CN(CC=C(c1ccccc1)c1ccccc1)[C@@H]1CCc2ccccc21)=C(c1ccccc1)c1ccccc1 [Compound 73, (R)—N,N-bis(3,3-diphenylallyl)-2,3-dihydro-1H-inden-1-amine] |  |  | EC50 (MiaPaCa-2 cells): 894 nM; EC50 (Hec-1B cells): 330 nM; EC50 (MOH cells): 616 nM; EC50 (HPAC cells): 346 nM; EC50 (MPanc-96 cells): 239 nM; EC50 (Hec50 cells): 412 nM; EC50 (Hec-1A cells): 19.6 nM |
| CC(CNCC=C(c1ccccc1)c1ccccc1)c1ccccc1 (stereo not drawn) [Compound 30, 3,3-diphenyl-N-(2-phenylpropyl)prop-2-en-1-amine] | 26.5 | 49.1 |  |
| C[C@H](OCC=C(c1ccccc1)c1ccccc1)c1ccccc1 [Compound 23, (S)-(3-(1-phenylethoxy)prop-1-ene-1,1-diyl)dibenzene] | 10.3 | -0.95 |  |
| CC(C)=CCC/C(C)=C/CO[C@H](C)c1ccccc1 [Compound 20, (R,E)-(1-((3,7-dimethylocta-2,6-dien-1-yl)oxy)ethyl)benzene] | 14.6 | -5.12 |  |
| C[C@H](OC/C=C/c1ccccc1)c1ccccc1 [Compound 25, (S,E)-(1-(cinnamyloxy)ethyl)benzene] | 33.9 | 56.8 |  |
| C[C@@H](NC/C=C/c1ccc(-c2ccccc2)cc1)c1ccccc1 [Compound 31, (R,E)-3-([1,1′-biphenyl]-4-yl)-N-(1-phenylethyl)prop-2-en-1-amine] | 6.36 | 35.6 |  |
| C[C@@H](NCCC(c1ccccc1)c1ccccc1)c1ccccc1.Cl [Compound 08, (R)-3,3-diphenyl-N-(1-phenylethyl)propan-1-amine hydrochloride] |  | 38.2 | % Mislocalization of K-ras when treated with 4 μM compound [1]: 36.05% |
| C[C@H](c1cccc(Cl)c1)N(CC=C(c1ccccc1)c1ccccc1)CC=C(c1ccccc1)c1ccccc1 [Compound 70, (R)—N-(1-(3-chlorophenyl)ethyl)-N-(3,3-diphenylallyl)-3,3-diphenylprop-2-en-1-amine] |  |  | EC50 (MiaPaCa-2 cells): 1500 nM; EC50 (Hec-1B cells): 10700 nM; EC50 (MOH cells): 663 nM; EC50 (HPAC cells): 220 nM; EC50 (MPanc-96 cells): 814 nM; EC50 (Hec50 cells): 3310 nM; EC50 (Hec-1A cells): 38.2 nM |
| CC(C)=CCC/C(C)=C/CC/C(C)=C/CN[C@H](C)c1ccccc1 [Compound 28, (2E,6E)-3,7,11-trimethyl-N—((R)-1-phenylethyl)dodeca-2,6,10-trien-1-amine] | 34.9 | 38 |  |
| COC(=O)[C@@H](NC/C=C/c1ccccc1)c1ccccc1 [Compound 39, (S)-methyl 2-(cinnamylamino)-2-phenylacetate] | 6.72 | -10.2 |  |
| C[C@@H](NCC=C(c1ccccc1)c1ccccc1)c1ccccc1 [Compound 16, (R)-3,3-diphenyl-N-(1-phenylethyl)prop-2-en-1-amine] | 39.3 | 58.4 |  |
| C[C@@H](NCC=C(c1ccccc1)c1ccccc1)c1ccc(Br)cc1 [Compound 44, (R)—N-(1-(4-bromophenyl)ethyl)-3,3-diphenylprop-2-en-1-amine] | 38.1 | 38.1 |  |
| COc1ccc([C@@H](C)N(CC=C(c2ccccc2)c2ccccc2)CC=C(c2ccccc2)c2ccccc2)cc1 [Compound 68, (R)-N-(3,3-diphenylallyl)-N-(1-(4-methoxyphenyl)ethyl)-3,3-diphenylprop-2-en-1-amine] |  |  | EC50 (MiaPaCa-2 cells): 1150 nM; EC50 (MOH cells): 931 nM; EC50 (HPAC cells): 105 nM; EC50 (MPanc-96 cells): 912 nM; EC50 (Hec50 cells): 1.58 nM; EC50 (Hec-1A cells): 211 nM |
